Measurements from patent US20240240224A1, “FLUORESCENT D-TYPE AMINO ACID METABOLISM MARKER-BASED METHOD FOR DETECTING ANTIBACTERIAL DRUG SENSITIVITY TEST” (priority 2020, published 2024).
≈ marks a conversion by molar mass, not a printed value.

Key:
E.coli 1113 [1] = experiment: FDAA metabolic labeling susceptibility test (Cy5-DAA probe, flow cytometry); format: cell-based, Escherichia coli; conditions: Escherichia coli; E.coli 1113; Cy5-DAA probe, 2 hours; read-out: MIC, FDAA
Method: (§1) The specific experimental steps are as follows: • 1. Take the colony to be tested that has been cultured overnight on the plate and fully mix it in normal saline to make a uniform bacterial solution. Dilute it into CAMHB medium to make a bacterial solution with OD600=0.05. • 2. Add 45 μl antibiotic solutions to be tested of different concentrations to 96-well plates (see Table 3 for antibiotic concentration gradient settings). • 3. Add 50 μl of bacterial solution prepared in Step 1 to the 96-well plate and mix well. • 4.5 μl of 10 mM Cy5-DAA probe was added to each well (final concentration was 0.15 mM, and its structure was shown in FIG. 1). After mixing, the probe was incubated for 2 hours in the dark. • 5. After dilution with 200 μl PBS solution, the fluorescence intensity of each sample was detected by flow cytometry. The flow detection results are shown in the attached FIG. 4-5, showing the curve of antibiotic concentration gradient and fluorescence intensity, and the MIC (minimum inhibitory concentration) is obtained by referring to this curve.

E.coli 1146 [2] = experiment: as above; format: cell-based, Escherichia coli; conditions: Escherichia coli; E.coli 1146; Cy5-DAA probe, 2 hours; read-out: MIC, FDAA
Method: as §1

E.coli 1113 [3] = experiment: Vitek 2 drug sensitivity test; format: cell-based, Escherichia coli; further: key: S: Drug sensitive; R: Drug resistance
E.coli 1146 [4] = experiment: Vitek 2 drug sensitivity test; format: cell-based, Escherichia coli; on Sensibility: key: S: Drug sensitive; R: Drug resistance
E. coli Ec11 [5] = experiment: BMD susceptibility test; format: cell-based, Escherichia coli; conditions: unit assumed
E. coli Ec11 [6] = experiment: FaAST (FDAA metabolic labeling); format: cell-based, Escherichia coli; conditions: unit assumed
Method: as §1
(§2) Antibiotic resistant strains are shown in bold in the table below.

Ec ATCC 25922 [7] = experiment: FaAST (FDAA metabolic labeling); format: cell-based, Escherichia coli; conditions: unit assumed
Method: as §1, §2

E. coli Ec13 [8] = experiment: BMD susceptibility test; format: cell-based, Escherichia coli; conditions: unit assumed
E. coli Ec13 [9] = experiment: FaAST (FDAA metabolic labeling); format: cell-based, Escherichia coli; conditions: unit assumed
Method: as §1, with “cytometry.” for “cytometry. The flow detection results are shown in the attached FIG. 4-5, showing the curve of antibiotic concentration gradient and fluorescence intensity, and the MIC (minimum inhibitory concentration) is obtained by referring to this curve.”

Ec ATCC 25922 [10] = experiment: BMD susceptibility test; format: cell-based, Escherichia coli; conditions: unit assumed
P. aeruginosa Pa2 [11] = experiment: BMD susceptibility test; format: cell-based, Pseudomonas aeruginosa; conditions: unit assumed
P. aeruginosa Pa3 [12] = experiment: BMD susceptibility test; format: cell-based, Pseudomonas aeruginosa; conditions: unit assumed
P. aeruginosa Pa2 [13] = experiment: FaAST (FDAA metabolic labeling); format: cell-based, Pseudomonas aeruginosa; conditions: unit assumed
Method: as §1, §2

P. aeruginosa Pa3 [14] = experiment: FaAST (FDAA metabolic labeling); format: cell-based, Pseudomonas aeruginosa; conditions: unit assumed
Method: as §1, §2

Pa ATCC 27853 [15] = experiment: FaAST (FDAA metabolic labeling); format: cell-based, Pseudomonas aeruginosa; conditions: unit assumed
Method: as §1, §2

Pa ATCC 27853 [16] = experiment: BMD susceptibility test; format: cell-based, Pseudomonas aeruginosa; conditions: unit assumed
A. baumannii Ab16 [17] = experiment: BMD susceptibility test; format: cell-based, Acinetobacter baumannii; conditions: unit assumed
A. baumannii Ab16 [18] = experiment: FaAST (FDAA metabolic labeling); format: cell-based, Acinetobacter baumannii; conditions: unit assumed
Method: as §1, with “cytometry.” for “cytometry. The flow detection results are shown in the attached FIG. 4-5, showing the curve of antibiotic concentration gradient and fluorescence intensity, and the MIC (minimum inhibitory concentration) is obtained by referring to this curve.”

A. baumannii Ab19 [19] = experiment: BMD susceptibility test; format: cell-based, Acinetobacter baumannii; conditions: unit assumed
A. baumannii Ab19 [20] = experiment: FaAST (FDAA metabolic labeling); format: cell-based, Acinetobacter baumannii; conditions: unit assumed
Method: as §1, §2

K. pneumoniae Kp6 [21] = experiment: BMD susceptibility test; format: cell-based, Klebsiella pneumoniae; conditions: unit assumed
K. pneumoniae Kp9 = experiment: BMD susceptibility test; format: cell-based, Klebsiella pneumoniae; conditions: unit assumed
K. pneumoniae Kp6 [22] = experiment: FaAST (FDAA metabolic labeling); format: cell-based, Klebsiella pneumoniae; conditions: unit assumed
Method: as §1, with “cytometry.” for “cytometry. The flow detection results are shown in the attached FIG. 4-5, showing the curve of antibiotic concentration gradient and fluorescence intensity, and the MIC (minimum inhibitory concentration) is obtained by referring to this curve.”

[23] = test system: bacteria contained in alveolar lavage fluid; experiment: FDAA metabolic labeling susceptibility test of alveolar lavage fluid (Cy5-DAA probe); format: cell-based; conditions: alveolar lavage fluid of patients with hospital acquired pneumonia, 2 hours
Method: (§3) With reference to the flow chart of the rapid detection method of antimicrobial susceptibility test based on FDAA metabolic markers shown in FIG. 3, FDAA is used for the detection of antimicrobial susceptibility test of alveolar lavage fluid. The specific experimental steps are as follows: • 1. Mix bronchoalveolar lavage fluid (BALF, 10 ml) of patients with hospital acquired pneumonia with cation regulated broth medium (CAMHB, 10 ml) of twice the concentration to prepare the bacterial fluid to be tested. • 2. Add 45 μl antibiotic solutions of different concentrations to the 96-well plate separately (see Table 1 for antibiotic concentration gradient settings). • 3. Add 50 μl of the bacterial solution prepared in step 1 to the 96-well plate and mix well. • 4. Add 5 μl of 10 mM Cy5-DAA probe (final concentration 0.15 mM, see FIG. 1 for its structure) into each well, mix well, and then cultivate in dark for 2 hours. • 5. Add 200 μl PBS solution for dilution, and then use flow cytometry to detect the fluorescence intensity of each sample.

[24] = test system: bacteria contained in alveolar lavage fluid; experiment: Vitek 2 drug sensitivity test of alveolar lavage fluid; format: cell-based; on Sensibility: key: S: Drug sensitive; R: Drug resistance
Escherichia coli ECO922 [25] = experiment: VITEK drug sensitivity test; format: cell-based; conditions: unit assumed
Escherichia coli ECO922 [26] = experiment: FaAST with DAA-Tetra probe; format: cell-based; conditions: unit assumed
Method: The specific experimental steps are as follows: • 1. The tested colonies cultured overnight on the plate were picked and mixed thoroughly in 2× Cation-Adjusted Mueller Hinton Broth medium (2×CAMHB) to make bacterial suspension with turbidity of OD600=0.1. • 2. […] Add 50 μL of the bacterial solution prepared in step 1 (the final concentration of the bacterial solution is OD600=0.05) to the 96-well plate, and add 5 μL of 3 mM DAA-Tetra probe (the final concentration is 0.15 mM), mix well, and incubate in the dark at 37° C. 120 rpm for 2 hours. • 4. After culture, dilute the mixed bacterial solution 10 times with PBS solution, and detect the fluorescence intensity of each sample with flow cytometry. The flow detection result is shown in FIG. 14-19, and the arrow is for the MIC value. The minimum inhibitory concentration of antibiotics was obtained according to the fluorescence signal intensity of flow detection, and the statistical results are shown in Table 6.

Escherichia coli ECO15 [27] = experiment: VITEK drug sensitivity test; format: cell-based; conditions: unit assumed
Escherichia coli ECO15 [28] = experiment: FaAST with DAA-Cy5-2 probe; format: cell-based; conditions: unit assumed
Method: as §3
The specific steps are the same as in Example 5. […] The minimum inhibitory concentration of antibiotics was obtained according to the fluorescence signal intensity of flow detection, and the statistical results are shown in Table 7.

Question: Which MIC (E.coli 1113 [1]) does the source give for `C[C@@H](O)[C@H]1C(=O)N2C(C(=O)O)=C(SCCN=CN)C[C@H]12` [Imipenem, imipenem] here?
Answer: The MIC was no less than 128 µg/mL.

Question: And the MIC (E.coli 1146 [2])?
Answer: The MIC was 0.5 µg/mL (≈ 1.67 µM).

Question: And the Sensibility (E.coli 1113 [3])?
Answer: Its Sensibility is “R”.

Question: And the Sensibility (E.coli 1146 [4])?
Answer: Its Sensibility is “S”.

Question: And the MIC (E.coli 1146 [4]; Escherichia coli)?
Answer: The MIC was no more than 1 µg/mL.

Question: What about the BMD (MIC) (E. coli Ec11 [5]) of the same compound?
Answer: Its BMD (MIC) is no more than 0.25 µg/mL.

Question: What about the FaAST (MIC) (E. coli Ec11 [6]) of the same compound?
Answer: The FaAST (MIC) was 1 µg/mL.

Question: What about the FaAST (MIC) (Ec ATCC 25922 [7]) of the same compound?
Answer: The FaAST (MIC) was 1 µg/mL.

Question: What about the BMD (MIC) (E. coli Ec13 [8]) of the same compound?
Answer: Its BMD (MIC) is 16 µg/mL.

Question: What about the FaAST (MIC) (E. coli Ec13 [9]) of the same compound?
Answer: Its FaAST (MIC) is 128 µg/mL.

Question: What about the BMD (MIC) (Ec ATCC 25922 [10]) of the same compound?
Answer: The BMD (MIC) was no more than 0.25 µg/mL.

Question: And the BMD (MIC) (P. aeruginosa Pa2 [11])?
Answer: Its BMD (MIC) is 1 µg/mL.

Question: And the BMD (MIC) (P. aeruginosa Pa3 [12])?
Answer: The BMD (MIC) was 32 µg/mL.

Question: And the FaAST (MIC) (P. aeruginosa Pa2 [13])?
Answer: The FaAST (MIC) was 1 µg/mL.

Question: And the FaAST (MIC) (P. aeruginosa Pa3 [14])?
Answer: The FaAST (MIC) was 32 µg/mL.

Question: What about the FaAST (MIC) (Pa ATCC 27853 [15]) of the same compound?
Answer: The FaAST (MIC) was 1 µg/mL.

Question: And the BMD (MIC) (Pa ATCC 27853 [16])?
Answer: Its BMD (MIC) is 2 µg/mL.

Question: What about the BMD (MIC) (A. baumannii Ab16 [17]) of the same compound?
Answer: Its BMD (MIC) is 32 µg/mL.

Question: What about the FaAST (MIC) (A. baumannii Ab16 [18]) of the same compound?
Answer: Its FaAST (MIC) is 64 µg/mL.

Question: What about the BMD (MIC) (A. baumannii Ab19 [19]) of the same compound?
Answer: Its BMD (MIC) is no more than 0.25 µg/mL.

Question: What about the FaAST (MIC) (A. baumannii Ab19 [20]) of the same compound?
Answer: Its FaAST (MIC) is 1 µg/mL.

Question: And the BMD (MIC) (K. pneumoniae Kp6 [21])?
Answer: Its BMD (MIC) is no more than 0.25 µg/mL.

Question: What about the BMD (MIC) (K. pneumoniae Kp9) of the same compound?
Answer: The BMD (MIC) was 128 µg/mL.

Question: What about the FaAST (MIC) (K. pneumoniae Kp6 [22]) of the same compound?
Answer: Its FaAST (MIC) is 1 µg/mL.

Question: And the “MIC, FDAA” value [23]?
Answer: The value was no less than 256 µg/mL.

Question: What about the MIC [24] of the same compound?
Answer: The MIC was no less than 16 µg/mL.

Question: And the Sensibility [24]?
Answer: Its Sensibility is “R”.

Question: And the MIC, VITEK (Escherichia coli ECO922 [25])?
Answer: The MIC, VITEK was 1 µg/mL (≈ 3.34 µM).

Question: And the MIC, FaAST (Escherichia coli ECO922 [26])?
Answer: Its MIC, FaAST is 1 µg/mL (≈ 3.34 µM).

Question: And the MIC, VITEK (Escherichia coli ECO15 [27])?
Answer: Its MIC, VITEK is 128 µg/mL (≈ 428 µM).

Question: What about the MIC, FaAST (Escherichia coli ECO15 [28]) of the same compound?
Answer: The MIC, FaAST was 128 µg/mL (≈ 428 µM).
